Consider 21 molecules from US10065956B2, “Ethynyl derivatives” (Hoffmann-La Roche Inc., priority 2015, dated 2018).

In this assay the target is T1, human mGlu4 receptor (Homo sapiens, UniProt Q14833).
T1 construct: expressed in transfected cells; host or cells: monoclonal HEK-293 cell line, stably transfected
As to the kind of experiment: Ca2+ mobilization in vitro assay on recombinant human mGlu4 expressed in HEK293 cells (PAM, L-AP4 at EC20). The class given is cell-based. To be noted: for Emax: HEK293, maximal response in % of the maximal stimulatory effect obtained with saturating concentrations of L-AP4, read-out: Eff. (%); for EC50: HEK293 cells expressing human mGlu4, L-AP4 added at EC20. From the text: FIG. 1: Illustration of the experimental outline for mGlu4 PAM Ca2+ mobilization screening assay and the determination of EC50 and % Emax values.
Determination of EC50 Values Using a Ca2+ Mobilization In Vitro Assay on Recombinant Human mGlu4 Expressed in HEK293 Cells:
A monoclonal HEK-293 cell line stably transfected with a cDNA encoding for the human mGlu4 receptor was generated; for the work with mGlu4 Positive Allosteric Modulators (PAMs), a cell line with low receptor expression levels and low constitutive receptor activity was selected to allow the differentiation of agonistic versus PAM activity. Cells were cultured according to standard protocols (Freshney, 2000) in Dulbecco's Modified Eagle Medium with high glucose supplemented with 1 mM glutamine, 10% (vol/vol) heat-inactivated bovine calf serum, Penicillin/Streptomycin, 50 μg/ml hygromycin and 15 μg/ml blasticidin (all cell culture reagents and antibiotics from Invitrogen, Basel, Switzerland).
About 24 hrs before an experiment, 5×10^4 cells/well were seeded in poly-D-lysine coated, black/clear-bottomed 96-well plates. The cells were loaded with 2.5 μM Fluo-4AM in loading buffer (1×HBSS, 20 mM HEPES) for 1 hr at 37° C. and washed five times with loading buffer. The cells were transferred into a Functional Drug Screening System 7000 (Hamamatsu, Paris, France), and 11 half logarithmic serial dilutions of test compound at 37° C. were added and the cells were incubated for 10-30 min. with on-line recording of fluorescence. Following this pre-incubation step, the agonist (2S)-2-amino-4-phosphonobutanoic acid (L-AP4) was added to the cells at a concentration corresponding to EC20 with on-line recording of fluorescence; in order to account for day-to-day variations in the responsiveness of cells, the EC20 of L-AP4 was determined immediately ahead of each experiment by recording of a full dose-response curve of L-AP4. Responses were measured as peak increase in fluorescence minus basal (i.e. fluorescence without addition of L-AP4), normalized to the maximal stimulatory effect obtained with saturating concentrations of L-AP4. Graphs were plotted with the % maximal stimulatory using XLfit, a curve fitting program that iteratively plots the data using Levenburg Marquardt algorithm. The single site competition analysis equation used was y=A+((B−A)/(1+((x/C)D))), where y is the % maximal stimulatory effect, A is the minimum y, B is the maximum y, C is the EC50, x is the log 10 of the concentration of the competing compound and D is the slope of the curve (the Hill Coefficient). From these curves the EC50 (drug concentration at which 50% of the maximal receptor activation was achieved), the Hill coefficient as well as the maximal response in % of the maximal stimulatory effect obtained with saturating concentrations of L-AP4 were calculated (see FIG. 1). […] A depression of the signal observed after addition of the EC20 concentration of L-AP4 was indicative of an inhibitory activity of the test compound.
For orientation: Calcium assays in cells follow changes in intracellular calcium, usually with a dye or a luminescent sensor.

T1 sequence (Q14833 33-912): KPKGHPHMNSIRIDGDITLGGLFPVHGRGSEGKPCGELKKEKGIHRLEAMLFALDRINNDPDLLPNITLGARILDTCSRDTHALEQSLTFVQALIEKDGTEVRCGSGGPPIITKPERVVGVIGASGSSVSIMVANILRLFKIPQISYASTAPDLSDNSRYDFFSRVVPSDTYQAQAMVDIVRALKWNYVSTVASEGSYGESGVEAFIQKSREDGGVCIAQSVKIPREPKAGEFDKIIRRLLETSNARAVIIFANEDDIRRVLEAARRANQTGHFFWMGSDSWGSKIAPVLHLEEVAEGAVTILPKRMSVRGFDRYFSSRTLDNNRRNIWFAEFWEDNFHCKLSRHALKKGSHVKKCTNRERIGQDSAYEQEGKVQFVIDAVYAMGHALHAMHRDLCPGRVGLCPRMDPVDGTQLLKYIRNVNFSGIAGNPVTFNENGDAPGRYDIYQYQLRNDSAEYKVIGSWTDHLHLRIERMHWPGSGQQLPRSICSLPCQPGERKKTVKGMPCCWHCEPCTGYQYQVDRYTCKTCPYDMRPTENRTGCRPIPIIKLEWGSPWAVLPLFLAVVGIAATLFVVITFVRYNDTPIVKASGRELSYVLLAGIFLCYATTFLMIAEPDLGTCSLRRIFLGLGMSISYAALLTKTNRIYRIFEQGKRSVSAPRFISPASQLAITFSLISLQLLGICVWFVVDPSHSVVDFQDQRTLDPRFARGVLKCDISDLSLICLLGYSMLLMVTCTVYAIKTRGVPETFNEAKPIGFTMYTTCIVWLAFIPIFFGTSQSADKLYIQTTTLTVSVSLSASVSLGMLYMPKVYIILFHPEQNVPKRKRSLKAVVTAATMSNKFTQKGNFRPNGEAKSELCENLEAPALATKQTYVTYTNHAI

With `CN1C(=O)N(c2c(F)cc(C#Cc3ccccc3)cc2F)C(=O)C[C@@]1(C)c1ccnn1C` [Example 7, (6S)-3-[2,6-Difluoro-4-(2-phenylethynyl)phenyl]-1,6-dimethyl-6-(2-methylpyrazol-3-yl)hexahydropyrimidine-2,4-dione], the Emax is 100% and the EC50 (as a rule, the concentration at which the effect is half-maximal) stood at 147 nM.
For the molecule `CN1C(=O)N(c2c(F)cc(C#Cc3ccccc3)cc2F)C(=O)C[C@@]1(C)c1cnn(CCO)c1` [Example 23, (6S)-3-[2,6-Difluoro-4-(2-phenylethynyl)phenyl]-6-[1-(2-hydroxyethyl)pyrazol-4-yl]-1,6-dimethyl-hexahydropyrimidine-2,4-dione], the Emax came to 147% and the EC50 was determined as 108 nM.
For `CN1C(=O)N(c2c(F)cc(C#Cc3ccccc3)cc2F)C(=O)C[C@@]1(C)c1ccn(CC(C)(C)O)n1` [Example 63, (6S)-3-[2,6-Difluoro-4-(2-phenylethynyl)phenyl]-6-[1-(2-hydroxy-2-methyl-propyl)pyrazol-3-yl]-1,6-dimethyl-hexahydropyrimidine-2,4-dione], in that order: 99% and 71 nM.
For `COCCCn1cc([C@]2(C)CC(=O)N(c3c(F)cc(C#Cc4ccccc4)cc3F)C(=O)N2C)cn1` [Example 21, (6S)-3-[2,6-Difluoro-4-(2-phenylethynyl)phenyl]-6-[1-(3-methoxypropyl)pyrazol-4-yl]-1,6-dimethyl-hexahydropyrimidine-2,4-dione], in that order: 136% and 70 nM.
The matching figures for `CN1C(=O)N(c2c(F)cc(C#Cc3ccccc3)cc2F)C(=O)C[C@@]1(C)c1cnn(C2CCOC2)c1` (mixture of isomers) [Example 62, (6S)-3-[2,6-Difluoro-4-(2-phenylethynyl)phenyl]-1,6-dimethyl-6-[1-[(3RS)-tetrahydrofuran-3-yl]pyrazol-4-yl]hexahydropyrimidine-2,4-dione]: 128% and 71 nM.
Turning to `CN1C(=O)N(c2c(F)cc(C#Cc3ccccc3)cc2F)C(=O)C[C@@]1(C)c1ccn(C2CCOC2)n1` (mixture of isomers) [Example 64, (6S)-3-[2,6-Difluoro-4-(2-phenylethynyl)phenyl]-1,6-dimethyl-6-[1-[(3RS)-tetrahydrofuran-3-yl]pyrazol-3-yl]hexahydropyrimidine-2,4-dione], the Emax amounted to 98% and the concentration for a half-maximal effect (EC50) is 88 nM.
For `CC[C@@]1(c2cnn(C)c2)CC(=O)N(c2c(F)cc(C#Cc3ccccc3)cc2F)C(=O)N1C` [Example 18, (6S)-3-[2,6-Difluoro-4-(2-phenylethynyl)phenyl]-6-ethyl-1-methyl-6-(1-methylpyrazol-4-yl)hexahydropyrimidine-2,4-dione], in that order: 135% and 47 nM.
The matching figures for `CN1C(=O)N(c2c(F)cc(C#Cc3ccccc3)cc2F)C(=O)C[C@@]1(C)c1ccn(C)n1` [Example 26, (6S)-3-[2,6-Difluoro-4-(2-phenylethynyl)phenyl]-1,6-dimethyl-6-(1-methylpyrazol-3-yl)hexahydropyrimidine-2,4-dione]: 146% and 69 nM.
The matching figures for `CN1C(=O)N(c2c(F)cc(C#Cc3ccccc3)cc2F)C(=O)C[C@@]1(C)c1cnn(CC(C)(C)O)c1` [Example 60, (6S)-3-[2,6-Difluoro-4-(2-phenylethynyl)phenyl]-6-[1-(2-hydroxy-2-methyl-propyl)pyrazol-4-yl]-1,6-dimethyl-hexahydropyrimidine-2,4-dione]: 142% and 47 nM.
Consider `COCCCn1ccc([C@]2(C)CC(=O)N(c3c(F)cc(C#Cc4ccccc4)cc3F)C(=O)N2C)n1` [Example 31, (6S)-3-[2,6-Difluoro-4-(2-phenylethynyl)phenyl]-6-[1-(3-methoxypropyl)pyrazol-3-yl]-1,6-dimethyl-hexahydropyrimidine-2,4-dione], for which the Emax was found to be 117% and the EC50 is 23 nM.
With `CN1C(=O)N(c2c(F)cc(C#Cc3cccc(F)c3F)cc2F)C(=O)C[C@@]1(C)c1cn[nH]c1` [Example 55, (6S)-3-[4-[2-(2,3-Difluorophenyl)ethynyl]-2,6-difluoro-phenyl]-1,6-dimethyl-6-(1H-pyrazol-4-yl)hexahydropyrimidine-2,4-dione], the Emax was 134% and the EC50 amounted to 54 nM.
Consider `CN1C(=O)N(c2c(F)cc(C#Cc3ccccc3)cc2F)C(=O)C[C@@]1(C)c1cc[nH]n1` [Example 10, (6S)-3-[2,6-Difluoro-4-(2-phenylethynyl)phenyl]-1,6-dimethyl-6-(1H-pyrazol-3-yl)hexahydropyrimidine-2,4-dione], for which the Emax turned out to be 134% and the EC50 was 84 nM.
For `CN1C(=O)N(c2c(F)cc(C#Cc3ccccc3)cc2F)C(=O)C[C@@]1(C)c1ccno1` [Example 41, (6S)-3-[2,6-Difluoro-4-(2-phenylethynyl)phenyl]-6-isoxazol-5-yl-1,6-dimethyl-hexahydropyrimidine-2,4-dione], in that order: 165% and 123 nM.
On to `CN1C(=O)N(c2c(F)cc(C#Cc3ccccc3)cc2F)C(=O)C[C@@]1(C)c1cnn(C2CC2)c1` [Example 52, (6S)-6-(1-Cyclopropylpyrazol-4-yl)-3-[2,6-difluoro-4-(2-phenylethynyl)phenyl]-1,6-dimethyl-hexahydropyrimidine-2,4-dione], for which the Emax amounted to 127% and the EC50 was 31 nM.
For `CN1C(=O)N(c2c(F)cc(C#Cc3ccccc3)cc2F)C(=O)C[C@@]1(C)c1cn[nH]c1` [Example 16, (6S)-3-[2,6-Difluoro-4-(2-phenylethynyl)phenyl]-1,6-dimethyl-6-(1H-pyrazol-4-yl)hexahydropyrimidine-2,4-dione], in that order: 131% and 36 nM.
For `CN1C(=O)N(c2c(F)cc(C#Cc3ccc(F)cc3)cc2F)C(=O)C[C@@]1(C)c1cnn(C)c1` [Example 49, (6S)-3-[2,6-Difluoro-4-[2-(4-fluorophenyl)ethynyl]phenyl]-1,6-dimethyl-6-(1-methylpyrazol-4-yl)hexahydropyrimidine-2,4-dione], in that order: 142% and 55 nM.
Take `CN1C(=O)N(c2c(F)cc(C#Cc3ccccc3)cc2F)C(=O)C[C@@]1(C)c1cn(C)nn1` [Example 34, (6S)-3-[2,6-Difluoro-4-(2-phenylethynyl)phenyl]-1,6-dimethyl-6-(1-methyltriazol-4-yl)hexahydropyrimidine-2,4-dione]: the Emax is 207% and the EC50 was 71 nM.
Regarding `CC[C@@]1(c2cn[nH]c2)CC(=O)N(c2c(F)cc(C#Cc3cccnc3)cc2F)C(=O)N1C` [Example 51, (6S)-3-[2,6-Difluoro-4-[2-(3-pyridyl)ethynyl]phenyl]-6-ethyl-1-methyl-6-(1H-pyrazol-4-yl)hexahydropyrimidine-2,4-dione], the Emax worked out at 136% and the EC50 was 45 nM.
For `COCCn1cc([C@]2(C)CC(=O)N(c3c(F)cc(C#Cc4ccccc4)cc3F)C(=O)N2C)cn1` [Example 20, (6S)-3-[2,6-Difluoro-4-(2-phenylethynyl)phenyl]-6-[1-(2-methoxyethyl)pyrazol-4-yl]-1,6-dimethyl-hexahydropyrimidine-2,4-dione], in that order: 137% and 54 nM.
For `CN1C(=O)N(c2c(F)cc(C#Cc3cccc(F)c3)cc2F)C(=O)C[C@@]1(C)c1cn[nH]c1` [Example 59, (6S)-3-[2,6-Difluoro-4-[2-(3-fluorophenyl)ethynyl]phenyl]-1,6-dimethyl-6-(1H-pyrazol-4-yl)hexahydropyrimidine-2,4-dione], the Emax is 160% and the EC50 amounted to 44 nM.
The matching figures for `CCN1C(=O)N(c2c(F)cc(C#Cc3ccccc3)cc2F)C(=O)C[C@@]1(C)c1cnn(C)c1` [Example 12, (6S)-3-[2,6-Difluoro-4-(2-phenylethynyl)phenyl]-1-ethyl-6-methyl-6-(1-methylpyrazol-4-yl)hexahydropyrimidine-2,4-dione]: 95% and 67 nM.
